± gives the standard deviation of the averaged measurements.
Tests used:
Details in all cases: exposure: 6-8 hpf to 5 dpf, scored at 6 dpf
Danio rerio embryo/larva [1] = test: max % larvae with any abnormality across tested concentrations; max tested concentration (log10 uM): 2; higher = more toxic; extreme values may be limits of the assay
Danio rerio embryo/larva [2] = test: max % larvae dead across tested concentrations; max tested concentration (log10 uM): 2; higher = more toxic; extreme values may be limits of the assay
Danio rerio embryo/larva [3] = test: max % larvae unhatched across tested concentrations; max tested concentration (log10 uM): 2; higher = more toxic
Danio rerio embryo/larva [4] = test: max % larvae generally abnormal across tested concentrations; higher = more toxic; extreme values may be limits of the assay
Danio rerio embryo/larva [5] = test: max % larvae with tail defects across tested concentrations; higher = more toxic; extreme values may be limits of the assay
Danio rerio embryo/larva [6] = test: max % larvae with uninflated swim bladder across tested concentrations; higher = more toxic; extreme values may be limits of the assay
Danio rerio embryo/larva [7] = test: max % larvae with craniofacial defects across tested concentrations; higher = more toxic; extreme values may be limits of the assay
Danio rerio embryo/larva [8] = test: max % larvae with abnormal position across tested concentrations; higher = more toxic; extreme values may be limits of the assay
Danio rerio embryo/larva [9] = test: max % larvae with spinal defects across tested concentrations; higher = more toxic; extreme values may be limits of the assay
Danio rerio embryo/larva [10] = test: max % larvae with pigmentation defects across tested concentrations; higher = more toxic
Danio rerio embryo/larva [11] = test: max % larvae with edema across tested concentrations; higher = more toxic; extreme values may be limits of the assay
Danio rerio embryo/larva [12] = test: max % larvae with blood pooling across tested concentrations; higher = more toxic; extreme values may be limits of the assay

O=C(CC(=O)C(F)(F)F)C(F)(F)F [1,1,1,5,5,5-Hexafluoro-2,4-pentanedione]
max % larvae (Danio rerio embryo/larva [1]): 0%
max % larvae dead across tested concentrations (Danio rerio embryo/larva [2]): 0%
max % larvae unhatched across tested concentrations (Danio rerio embryo/larva [3]): 0%

FC(F)(Br)C(F)(F)C(F)(F)C(F)(F)C(F)(F)C(F)(F)Br [1,6-Dibromododecafluorohexane]
max % larvae (Danio rerio embryo/larva [1]): 4.17%
max % larvae dead across tested concentrations (Danio rerio embryo/larva [2]): 0%
max % larvae unhatched across tested concentrations (Danio rerio embryo/larva [3]): 0%

FC(F)(F)C(F)(F)C(F)(F)C(F)(F)CCI [1H,1H,2H,2H-Perfluorohexyl iodide]
max % larvae (Danio rerio embryo/larva [1]): 8.33%
max % larvae dead across tested concentrations (Danio rerio embryo/larva [2]): 0%
max % larvae unhatched across tested concentrations (Danio rerio embryo/larva [3]): 0%

OCC(F)(F)C(F)(F)C(F)(F)C(F)F [1H,1H,5H-Perfluoropentanol]
max % larvae (Danio rerio embryo/larva [1]): 16.7%
max % larvae dead across tested concentrations (Danio rerio embryo/larva [2]): 16.7%
max % larvae unhatched across tested concentrations (Danio rerio embryo/larva [3]): 0%

OCC(F)(F)C(F)(F)C(F)(F)C(F)(F)C(F)(F)C(F)F [1H,1H,7H-Dodecafluoro-1-heptanol]
max % larvae (Danio rerio embryo/larva [1]): 8.33%
max % larvae dead across tested concentrations (Danio rerio embryo/larva [2]): 0%
max % larvae unhatched across tested concentrations (Danio rerio embryo/larva [3]): 0%

OCC(F)(F)OC(F)(F)C(F)(F)OC(F)(F)CO [1H,1H,8H,8H-Perfluoro-3,6-dioxaoctane-1,8-diol]
max % larvae (Danio rerio embryo/larva [1]): 0%
max % larvae dead across tested concentrations (Danio rerio embryo/larva [2]): 0%
max % larvae unhatched across tested concentrations (Danio rerio embryo/larva [3]): 0%

FC(F)(F)C(F)(F)C(F)(F)CC1CO1 (configuration not stated) [1H,1H-Heptafluorobutyl epoxide]
max % larvae (Danio rerio embryo/larva [1]): 9.09%
max % larvae dead across tested concentrations (Danio rerio embryo/larva [2]): 0%
max % larvae unhatched across tested concentrations (Danio rerio embryo/larva [3]): 0%

C=CC(=O)OCC(F)(F)C(F)(F)C(F)(F)C(F)(F)C(F)(F)C(F)(F)C(F)(F)F [1H,1H-Perfluorooctyl acrylate]
max % larvae (Danio rerio embryo/larva [1]): 0%
max % larvae dead across tested concentrations (Danio rerio embryo/larva [2]): 0%
max % larvae unhatched across tested concentrations (Danio rerio embryo/larva [3]): 0%

NCC(F)(F)C(F)(F)C(F)(F)C(F)(F)C(F)(F)C(F)(F)C(F)(F)F [1H,1H-Perfluorooctylamine]
max % larvae (Danio rerio embryo/larva [1]): 33.3 ± 47%
max % larvae dead across tested concentrations (Danio rerio embryo/larva [2]): 8.33 ± 12%
max % larvae unhatched across tested concentrations (Danio rerio embryo/larva [3]): 0%

C=C(C)C(=O)OCCC(F)(F)C(F)(F)C(F)(F)C(F)(F)C(F)(F)C(F)(F)F [2-(Perfluorohexyl)ethyl methacrylate]
max % larvae (Danio rerio embryo/larva [1]): 0%
max % larvae dead across tested concentrations (Danio rerio embryo/larva [2]): 0%
max % larvae unhatched across tested concentrations (Danio rerio embryo/larva [3]): 0%

C=CC(=O)OCCC(F)(F)C(F)(F)C(F)(F)C(F)(F)C(F)(F)C(F)(F)C(F)(F)C(F)(F)F [2-(Perfluorooctyl)ethyl acrylate]
max % larvae (Danio rerio embryo/larva [1]): 0%
max % larvae dead across tested concentrations (Danio rerio embryo/larva [2]): 0%
max % larvae unhatched across tested concentrations (Danio rerio embryo/larva [3]): 0%

C=C(C)C(=O)OCCC(F)(F)C(F)(F)C(F)(F)C(F)(F)C(F)(F)C(F)(F)C(F)(F)C(F)(F)F [2-(Perfluorooctyl)ethyl methacrylate]
max % larvae (Danio rerio embryo/larva [1]): 0%
max % larvae dead across tested concentrations (Danio rerio embryo/larva [2]): 0%
max % larvae unhatched across tested concentrations (Danio rerio embryo/larva [3]): 0%

O=C(O)C=C(C(F)(F)F)C(F)(F)F [3,3-Bis(trifluoromethyl)-2-propenoic acid]
max % larvae (Danio rerio embryo/larva [1]): 2.08%
max % larvae dead across tested concentrations (Danio rerio embryo/larva [2]): 0%
max % larvae unhatched across tested concentrations (Danio rerio embryo/larva [3]): 0%

O=C(O)C=CC(F)(C(F)(F)F)C(F)(F)F [3-(Perfluoroisopropyl)-2-propenoic acid]
max % larvae (Danio rerio embryo/larva [1]): 16.7%
max % larvae dead across tested concentrations (Danio rerio embryo/larva [2]): 0%
max % larvae unhatched across tested concentrations (Danio rerio embryo/larva [3]): 0%

OCCCC(F)(F)C(F)(F)C(F)(F)C(F)(F)C(F)(F)C(F)(F)C(F)(F)C(F)(F)F [3-(Perfluorooctyl)propanol]
max % larvae (Danio rerio embryo/larva [1]): 0%
max % larvae dead across tested concentrations (Danio rerio embryo/larva [2]): 0%
max % larvae unhatched across tested concentrations (Danio rerio embryo/larva [3]): 0%

OCC(F)(F)C(F)(F)C(F)(F)F [3:1 Fluorotelomer alcohol]
max % larvae (Danio rerio embryo/larva [1]): 8.33%
max % larvae dead across tested concentrations (Danio rerio embryo/larva [2]): 0%
max % larvae unhatched across tested concentrations (Danio rerio embryo/larva [3]): 0%

O=C(O)CCC(F)(C(F)(F)F)C(F)(F)F [4,4-bis(Trifluoromethyl)-4-fluoropropanoic acid]
max % larvae (Danio rerio embryo/larva [1]): 16.7%
max % larvae dead across tested concentrations (Danio rerio embryo/larva [2]): 16.7%
max % larvae unhatched across tested concentrations (Danio rerio embryo/larva [3]): 0%

OCCC(F)(F)C(F)(F)C(F)(F)C(F)(F)F [4:2 Fluorotelomer alcohol]
max % larvae (Danio rerio embryo/larva [1]): 4.17%
max % larvae dead across tested concentrations (Danio rerio embryo/larva [2]): 0%
max % larvae unhatched across tested concentrations (Danio rerio embryo/larva [3]): 0%

O=S(=O)(O)CCC(F)(F)C(F)(F)C(F)(F)C(F)(F)F [4:2 Fluorotelomer sulfonic acid]
max % larvae (Danio rerio embryo/larva [1]): 0%
max % larvae dead across tested concentrations (Danio rerio embryo/larva [2]): 0%
max % larvae unhatched across tested concentrations (Danio rerio embryo/larva [3]): 0%

NC(=O)C(F)(F)C(F)(F)C(F)(F)C(F)F [Perfluoropentanamide] (max tested concentration (log10 uM): 2)
max % larvae generally abnormal across tested concentrations (Danio rerio embryo/larva [4]): 0%
max % larvae (Danio rerio embryo/larva [5]): 0%
max % larvae (Danio rerio embryo/larva [6]): 0%
max % larvae (Danio rerio embryo/larva [7]): 0%
max % larvae (Danio rerio embryo/larva [8]): 0%
max % larvae (Danio rerio embryo/larva [9]): 0%
max % larvae (Danio rerio embryo/larva [10]): 0%
max % larvae (Danio rerio embryo/larva [11]): 0%
max % larvae (Danio rerio embryo/larva [12]): 0%

O=C(O)C(F)(F)C(F)(F)C(F)(F)C(=O)O [Perfluoropentanedioic acid] (max tested concentration (log10 uM): 2)
max % larvae generally abnormal across tested concentrations (Danio rerio embryo/larva [4]): 0%
max % larvae (Danio rerio embryo/larva [5]): 0%
max % larvae (Danio rerio embryo/larva [6]): 0%
max % larvae (Danio rerio embryo/larva [7]): 0%
max % larvae (Danio rerio embryo/larva [8]): 0%
max % larvae (Danio rerio embryo/larva [9]): 0%
max % larvae (Danio rerio embryo/larva [10]): 0%
max % larvae (Danio rerio embryo/larva [11]): 0%
max % larvae (Danio rerio embryo/larva [12]): 0%

O=C(O)C(F)(F)C(F)(F)C(F)(F)C(F)(F)F [Perfluoropentanoic acid] (max tested concentration (log10 uM): 2)
max % larvae generally abnormal across tested concentrations (Danio rerio embryo/larva [4]): 16.7%
max % larvae (Danio rerio embryo/larva [5]): 0%
max % larvae (Danio rerio embryo/larva [6]): 16.7%
max % larvae (Danio rerio embryo/larva [7]): 0%
max % larvae (Danio rerio embryo/larva [8]): 4.17%
max % larvae (Danio rerio embryo/larva [9]): 0%
max % larvae (Danio rerio embryo/larva [10]): 0%
max % larvae (Danio rerio embryo/larva [11]): 16.7%
max % larvae (Danio rerio embryo/larva [12]): 0%

O=C(O)C(F)(F)C(F)(F)F [Perfluoropropanoic acid] (max tested concentration (log10 uM): 2)
max % larvae generally abnormal across tested concentrations (Danio rerio embryo/larva [4]): 0%
max % larvae (Danio rerio embryo/larva [5]): 0%
max % larvae (Danio rerio embryo/larva [6]): 0%
max % larvae (Danio rerio embryo/larva [7]): 0%
max % larvae (Danio rerio embryo/larva [8]): 0%
max % larvae (Danio rerio embryo/larva [9]): 0%
max % larvae (Danio rerio embryo/larva [10]): 0%
max % larvae (Danio rerio embryo/larva [11]): 0%
max % larvae (Danio rerio embryo/larva [12]): 0%

O=C(O)C(F)(F)C(F)(F)C(F)(F)C(F)(F)C(F)(F)C(F)(F)C(F)(F)C(F)(F)C(F)(F)C(F)(F)C(F)(F)C(F)(F)C(F)(F)F [Perfluorotetradecanoic acid] (max tested concentration (log10 uM): 1.30103)
max % larvae generally abnormal across tested concentrations (Danio rerio embryo/larva [4]): 2.27%
max % larvae (Danio rerio embryo/larva [5]): 0%
max % larvae (Danio rerio embryo/larva [6]): 4.55%
max % larvae (Danio rerio embryo/larva [7]): 0%
max % larvae (Danio rerio embryo/larva [8]): 0%
max % larvae (Danio rerio embryo/larva [9]): 0%
max % larvae (Danio rerio embryo/larva [10]): 0%
max % larvae (Danio rerio embryo/larva [11]): 0%
max % larvae (Danio rerio embryo/larva [12]): 0%

O=C(O)C(F)(F)C(F)(F)C(F)(F)C(F)(F)C(F)(F)C(F)(F)C(F)(F)C(F)(F)C(F)(F)C(F)(F)C(F)(F)C(F)(F)F [Perfluorotridecanoic acid] (max tested concentration (log10 uM): 1.30103)
max % larvae generally abnormal across tested concentrations (Danio rerio embryo/larva [4]): 16.7%
max % larvae (Danio rerio embryo/larva [5]): 0%
max % larvae (Danio rerio embryo/larva [6]): 16.7%
max % larvae (Danio rerio embryo/larva [7]): 16.7%
max % larvae (Danio rerio embryo/larva [8]): 8.33%
max % larvae (Danio rerio embryo/larva [9]): 0%
max % larvae (Danio rerio embryo/larva [10]): 0%
max % larvae (Danio rerio embryo/larva [11]): 16.7%
max % larvae (Danio rerio embryo/larva [12]): 16.7%

O=S(=O)(O)C(F)(F)C(F)(F)C(F)(F)C(F)(F)F [Potassium perfluorobutanesulfonate] (max tested concentration (log10 uM): 2)
max % larvae generally abnormal across tested concentrations (Danio rerio embryo/larva [4]): 4.17%
max % larvae (Danio rerio embryo/larva [5]): 0%
max % larvae (Danio rerio embryo/larva [6]): 8.33%
max % larvae (Danio rerio embryo/larva [7]): 0%
max % larvae (Danio rerio embryo/larva [8]): 0%
max % larvae (Danio rerio embryo/larva [9]): 0%
max % larvae (Danio rerio embryo/larva [10]): 0%
max % larvae (Danio rerio embryo/larva [11]): 0%
max % larvae (Danio rerio embryo/larva [12]): 0%

O=S(=O)(O)C(F)(F)C(F)(F)C(F)(F)C(F)(F)C(F)(F)C(F)(F)F [Potassium perfluorohexanesulfonate] (max tested concentration (log10 uM): 2)
max % larvae generally abnormal across tested concentrations (Danio rerio embryo/larva [4]): 55.6%
max % larvae (Danio rerio embryo/larva [5]): 0%
max % larvae (Danio rerio embryo/larva [6]): 77.8%
max % larvae (Danio rerio embryo/larva [7]): 33.3%
max % larvae (Danio rerio embryo/larva [8]): 19.4%
max % larvae (Danio rerio embryo/larva [9]): 0%
max % larvae (Danio rerio embryo/larva [10]): 0%
max % larvae (Danio rerio embryo/larva [11]): 44.4%
max % larvae (Danio rerio embryo/larva [12]): 16.7%

O=C(O)C(F)(F)C(F)(F)C(F)(F)C(F)(F)C(F)(F)C(F)(F)C(F)(F)F [Sodium perfluorooctanoate] (max tested concentration (log10 uM): 2)
max % larvae generally abnormal across tested concentrations (Danio rerio embryo/larva [4]): 0%
max % larvae (Danio rerio embryo/larva [5]): 0%
max % larvae (Danio rerio embryo/larva [6]): 0%
max % larvae (Danio rerio embryo/larva [7]): 0%
max % larvae (Danio rerio embryo/larva [8]): 0%
max % larvae (Danio rerio embryo/larva [9]): 0%
max % larvae (Danio rerio embryo/larva [10]): 0%
max % larvae (Danio rerio embryo/larva [11]): 0%
max % larvae (Danio rerio embryo/larva [12]): 0%

FC(F)(F)COC(OCC(F)(F)F)OCC(F)(F)F [tris(Trifluoroethoxy)methane] (max tested concentration (log10 uM): 2)
max % larvae generally abnormal across tested concentrations (Danio rerio embryo/larva [4]): 0%
max % larvae (Danio rerio embryo/larva [5]): 0%
max % larvae (Danio rerio embryo/larva [6]): 0%
max % larvae (Danio rerio embryo/larva [7]): 0%
max % larvae (Danio rerio embryo/larva [8]): 0%
max % larvae (Danio rerio embryo/larva [9]): 0%
max % larvae (Danio rerio embryo/larva [10]): 0%
max % larvae (Danio rerio embryo/larva [11]): 0%
max % larvae (Danio rerio embryo/larva [12]): 0%

Source: the supplement of paper PMC11281043
